Measured values from PubChem BioAssay (NCI).
Values joined by “and” are separate entries in the source; they are usually repeats but may differ in a detail not shown here. Equal values may be shown once.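 96-well plates; 48 h exposure; 5 concentrations. Endpoints by linear interpolation between flanking doses. Not reached: highest tested concentration assigned. Abbreviation: GI50, concentration required for 50% inhibition of growth. TGI: concentration producing complete growth inhibition.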

Tests used:
Assay in all cases: inhibition of tumour cell growth, NCI panel, 48 h
786-0 renal = test system: 786-0 renal
EKVX NSCLC = test system: EKVX NSCLC
K-562 leukemia = test system: K-562 leukemia
SK-MEL-2 melanoma = test system: SK-MEL-2 melanoma
SK-MEL-5 melanoma = test system: SK-MEL-5 melanoma
T-47D breast = test system: T-47D breast
UO-31 renal = test system: UO-31 renal
MALME-3M melanoma = test system: MALME-3M melanoma
NCI-H23 lung = test system: NCI-H23 lung
NCI/ADR-RES ovarian = test system: NCI/ADR-RES ovarian

SMILES	GI50 (786-0 renal) [µM]	TGI (786-0 renal)	GI50 (EKVX NSCLC) [µM]	TGI (EKVX NSCLC)	GI50 (K-562 leukemia) [µM]	TGI (K-562 leukemia)	GI50 (SK-MEL-2 melanoma) [µM]	TGI (SK-MEL-2 melanoma)	GI50 (SK-MEL-5 melanoma) [µM]	TGI (SK-MEL-5 melanoma)	GI50 (T-47D breast) [µM]	TGI (T-47D breast) [µM]	GI50 (UO-31 renal) [µM]	TGI (UO-31 renal)	TGI (MALME-3M melanoma)	TGI (NCI-H23 lung)	TGI (NCI/ADR-RES ovarian) [µM]	GI50 (MALME-3M melanoma) [µM]	GI50 (NCI-H23 lung) [µM]	GI50 (NCI/ADR-RES ovarian) [µM]
C[C@@H]1O[C@@H](O[C@@H]2[C@@H](O)[C@H](OCCc3ccc(O)c(O)c3)O[C@H](COC(=O)/C=C/c3ccc(O)c(O)c3)[C@H]2O)[C@H](O)[C@H](O)[C@H]1O	58.4	> 100 µM	36.3	> 100 µM	36.7	> 100 µM	> 100	> 100 µM	> 100	> 100 µM	> 100	> 100	> 100	> 100 µM						
Cc1cc(O)c(C(=O)CC2(O)C(=O)Nc3c(Cl)cc(Cl)cc32)c(=O)o1 (stereo unspecified)		> 100 µM		> 100 µM		> 100 µM		> 100 µM		> 100 µM				> 100 µM	> 100 µM	> 100 µM				
Clc1ccc(-n2nnc(C3=NCCCN3)c2-c2ccccc2)cc1		> 100 µM		> 100 µM		> 100 µM		> 100 µM		> 100 µM				> 100 µM	> 100 µM	> 100 µM				
CC(=O)NC1=C(Nc2ccc(C)cc2)C(=O)c2ccccc2C1=O		39.3 µM		> 75 µM		> 75 µM		56.7 µM		20.4 µM				> 75 µM	22.8 µM	19.6 µM				
C=C(Cl)COC(=O)Nc1cccc(Cl)c1		92.2 µM		59.1 µM		> 100 µM		58.5 µM		39.6 µM		> 100		44.9 µM		90.2 µM	99.7			
N#CCc1ccc(C(C#N)/C(CCCC(=O)Nc2cccc([N+](=O)[O-])c2)=N\NC(=O)NN)cc1 (stereo unspecified)		> 100 µM		> 100 µM		> 100 µM		> 100 µM		> 100 µM				> 100 µM	> 100 µM	> 100 µM				
CC(=O)OCC1OC(OC2CC3C(C)(C)C(OC(C)=O)CC[C@]3(C)C3CCC45CC4(CC[C@H]5C(C)CC(O)[C@@H](O)C(C)(C)O)[C@]23C)C(O)C(O)C1O (stereo partly specified)		14.2 µM and 21.9 µM	15.8	13.1 µM and 29.2 µM	3.47	13.8 µM and 18.7 µM	2.87	16.8 µM and 7.36 µM		13.2 µM and 19.7 µM			18.5	12.3 µM and 32.5 µM	13.9 µM and 26 µM	14.9 µM and 26.3 µM		13.2	13.5	
O=C(Nc1ccc(-n2cc(-c3ccncc3)c(-c3ccc(Cl)c(O)c3)n2)cc1)Nc1cc(C(F)(F)F)cc(C(F)(F)F)c1	1.8	3.72 µM	1.97	5.51 µM			1.8	3.45 µM	1.67	3.41 µM	1.85	8	1.55	3.93 µM		4.91 µM	5.6		2.13	2.22
O=C(CNC(=O)OCc1ccccc1)Oc1ccccc1		> 100 µM		> 100 µM		> 100 µM		> 100 µM		> 100 µM				> 100 µM	> 100 µM	> 100 µM				
C1CNCCNCCNCCN1		> 100 µM		> 100 µM		> 100 µM		> 100 µM		> 100 µM				> 100 µM	> 100 µM	> 100 µM				
